Reference: publication PMC9587990, “Molecular basis for isoform-selective inhibition of presenilin-1 by MRK-560” (Nature Communications, 2022)
Values joined by “and” are separate entries in the source; they are usually repeats but may differ in a detail not shown here. Equal entries are not always repeated. “Also recorded” adds a separate entry of the source. Where two headings read alike, the source gives them in different places.

What was measured:
[1] = test system: PS2 variants; test: in vitro cleavage assay, AICD production by western blot; assay type: biochemical, human; conditions: PS2 variants versus WT PS2
Procedure: Fig. 4 Thr281 and Leu282 of PS1 determine the isoform selectivity of MRK-560. a–c Individual and double residue swapping of Thr281 and Leu282 in PS1 with the corresponding Pro287 and Ile288 in PS2 alter their respective sensitives to MRK-560 accordingly. IC50 values for MRK-560 inhibition of the indicated PS1 (a) and PS2 (b) mutants were measured using the AlphaLISA assay that detects Aβ40 production. Please refer to Methods for experimental details. Data are presented as mean values ± SD. c Production of AICD by residue-swapped PS1 and PS2 mutants. The amount of AICD generated by the indicated variants in the presence of serial diluted MRK-560 is consistent with the corresponding IC50 shown in (a, b). […] The production of AICD was quantified by ImageJ. Red asterisks indicate the first concentration where the normalized production of AICD was reduced to less than 20%. Source data are provided as a Source Data file. […]
(§1) All proteins used for the activity assay were sub-cloned, expressed and purified as described. Protein concentration was determined using the Bradford method. […] The cleaved products of these substrates were detected using a monoclonal antibody (1:1000 dilution, CW0299, CWBio) against the C-terminal Myc tag. Aβ40 production was detected using the AlphaLISA assay (PerkinElmer) as described. The IC50 values and the inhibition curves were calculated using Prism 8.0.

[2] = biological target: T1, PS1-complex (WT PS1-containing γ-secretase) (Homo sapiens, UniProt P49768); test: in vitro cleavage assay, Aβ40 production by AlphaLISA; assay type: biochemical; conditions: for remaining activity at 0.002 µM / remaining activity at 0.01 µM / remaining activity at 0.04 µM / remaining activity at 0.2 µM / remaining activity at 1 µM / remaining activity at 10 µM: 4 h
T1 construct: made in house; host or cells: mammalian cells (HEK293F is stated for the cryo-EM samples)
Procedure: (§2) The PS1- or PS2 complexes were expressed and purified as described. To validate the inhibitory effect of MRK-560 (Fig. 1a), we reconstituted an in vitro cleavage assay using the purified PS1- or PS2 complexes. Production of Aβ40, which is the major cleavage product among the varying lengths of Aβs, and AICD, whose cleavage reflects the endopeptidase activity of γ-secretase, are measured with AlphaLISA and western blots, respectively. All proteins used for the activity assay were sub-cloned, expressed and purified as described. Protein concentration was determined using the Bradford method. […] The cleavage reaction was conducted at 37 °C for 4 h. The cleaved products of these substrates were detected using a monoclonal antibody (1:1000 dilution, CW0299, CWBio) against the C-terminal Myc tag. Aβ40 production was detected using the AlphaLISA assay (PerkinElmer) as described. The IC50 values and the inhibition curves were calculated using Prism 8.0. Statistical analysis of Aβ40 was performed using Prism 8 (GraphPad Software, San Diego, CA, USA). IC50 were determined by a four-parameter logistic regression. The statistical details can be found in Figs. 1, 4 and legends. Data are expressed as mean ± SD.

[3] = biological target: T2, PS2-complex (WT PS2-containing γ-secretase) (Homo sapiens, UniProt P49810); test: as above; assay type: biochemical; conditions: for remaining activity at 0.002 µM / remaining activity at 0.01 µM / remaining activity at 0.04 µM / remaining activity at 0.2 µM / remaining activity at 1 µM / remaining activity at 10 µM: 4 h; for remaining activity at 0.002 µM / remaining activity at 0.01 µM / remaining activity at 0.04 µM / remaining activity at 0.2 µM / remaining activity at 1 µM / remaining activity at 10 µM / Caculated Aβ40 production / raw data from α-Lisa reading: PS2 WT
T2 construct: made in house; host or cells: mammalian cells (HEK293F is stated for the cryo-EM samples)
Procedure: as §2

[4] = biological target: T3, WT PS1-complex (Homo sapiens, UniProt P49768); test: in vitro cleavage assay, AICD production by western blot; assay type: biochemical; conditions: 200 nM MRK-560, WT PS1-complex
T3 construct: made in house; host or cells: mammalian cells (HEK293F is stated for the cryo-EM samples)
Procedure: (§3) The PS1- or PS2 complexes were expressed and purified as described. To validate the inhibitory effect of MRK-560 (Fig. 1a), we reconstituted an in vitro cleavage assay using the purified PS1- or PS2 complexes. Production of Aβ40, which is the major cleavage product among the varying lengths of Aβs, and AICD, whose cleavage reflects the endopeptidase activity of γ-secretase, are measured with AlphaLISA and western blots, respectively.
(§4) Release of AICD in the presence of decreasing concentrations of MRK-560 from 10 μM to 2 nM was monitored by western blot with the primary monoclonal antibody against the C-terminal Myc tag. The production of AICD was quantified by ImageJ. Red asterisks indicate the first concentration where the normalized production of AICD was reduced to less than 20%. Each cleavage assay in (b–d) was repeated for three times. Error bars: SD. Source Data is available as a Source Data file.
as §1

[5] = biological target: T4, WT PS2-complex (Homo sapiens, UniProt P49810); test: as above; assay type: biochemical; conditions: 10 μM MRK-560, WT PS2-complex
T4 construct: made in house; host or cells: mammalian cells (HEK293F is stated for the cryo-EM samples)
Procedure: as §3, §4, §1

[6] = test system: PS1-complex over PS2; conditions: cited from earlier work
[7] = test system: Notch; design: method as in PMID 17099072, PMID 16443723; conditions: wild-type (WT) mouse model; cited from earlier work
[8] = PS1 WT, MRK-560 2 nM, replicates
[9] = PS1 WT, MRK-560 10 nM, replicates
[10] = PS1 WT, MRK-560 40 nM, replicates
[11] = PS1 WT, MRK-560 200 nM, replicates
[12] = PS1 WT, MRK-560 1 μM, replicates
[13] = PS1 WT, MRK-560 10 μM, replicates

## O=S(=O)(NC1CCC(c2cc(F)ccc2F)(S(=O)(=O)c2ccc(Cl)cc2)CC1)C(F)(F)F (stereo not drawn) [MRK-560, N-[cis-4-[(4-chlorophenyl)sulfonyl]-4-(2,5-difluorophenyl)cyclohexyl]-1,1,1-trifluoromethanesulfonamide]
[1]
  sensitivity of AICD production to MRK-560: increased sensitivity
[2]; PS1 WT, MRK-560 2 nM, mean of 3 replicates, read-out: Normalized production (control=1), Mean
  remaining activity at 0.002 µM: 101%
[2]; PS1 WT, MRK-560 2 nM, replicates, read-out: Normalized production (control=1)
  remaining activity at 0.002 µM: 102%
[2]; PS1 WT, MRK-560 10 nM, mean of 3 replicates, read-out: Normalized production (control=1), Mean
  remaining activity at 0.01 µM: 92.4%
[2]; PS1 WT, MRK-560 10 nM, replicates, read-out: Normalized production (control=1)
  remaining activity at 0.01 µM: 90.9%
[2]; PS1 WT, MRK-560 40 nM, mean of 3 replicates, read-out: Normalized production (control=1), Mean
  remaining activity at 0.04 µM: 43.2%
[2]; PS1 WT, MRK-560 40 nM, replicates, read-out: Normalized production (control=1)
  remaining activity at 0.04 µM: 43.4%
[2]; PS1 WT, MRK-560 200 nM, mean of 3 replicates, read-out: Normalized production (control=1), Mean
  remaining activity at 0.2 µM: 8.2%
[2]; PS1 WT, MRK-560 200 nM, replicates, read-out: Normalized production (control=1)
  remaining activity at 0.2 µM: 8.25%
[2]; PS1 WT, MRK-560 1 μM, mean of 3 replicates, read-out: Normalized production (control=1), Mean
  remaining activity at 1 µM: 0.63%
[2]; PS1 WT, MRK-560 1 μM, replicates, read-out: Normalized production (control=1)
  remaining activity at 1 µM: 0.63%
[2]; PS1 WT, MRK-560 10 μM, mean of 3 replicates, read-out: Normalized production (control=1), Mean
  remaining activity at 10 µM: 0.52%
[2]; PS1 WT, MRK-560 10 μM, replicates, read-out: Normalized production (control=1)
  remaining activity at 10 µM: 0.46%
[2]; PS1-complex WT, mean ± SD, n=3
  IC50: 33 ± 2 nM
[2]; [8]
  Caculated Aβ40 production: 346.0052 and 350.2238 and 339.9166
  raw data from α-Lisa reading: 53851 and 52412 and 53263
[2]; [9]
  Caculated Aβ40 production: 325.7701 and 311.5896 and 312.3355
  raw data from α-Lisa reading: 48416 and 48522 and 50424
[2]; [10]
  Caculated Aβ40 production: 146.9566 and 148.7756 and 148.6084
  raw data from α-Lisa reading: 24210 and 24184 and 23927
[2]; [11]
  Caculated Aβ40 production: 26.7052 and 28.2767 and 29.2852
  raw data from α-Lisa reading: 4813 and 4981 and 4551
[2]; [12]
  Caculated Aβ40 production: 2.1627 and 2.1745 and 2.1272
  raw data from α-Lisa reading: 430 and 422 and 428
[2]; [13]
  Caculated Aβ40 production: 1.8967 and 1.5777 and 1.8849
  Normalized production (control=1): 0.0055
  raw data from α-Lisa reading: 329 and 381 and 383
[3]; MRK-560 2 nM, mean of 3 replicates, read-out: Normalized production (control=1), Mean
  remaining activity at 0.002 µM: 98.5%
[3]; MRK-560 2 nM, replicates, read-out: Normalized production (control=1)
  remaining activity at 0.002 µM: 96.8%
[3]; MRK-560 10 nM, mean of 3 replicates, read-out: Normalized production (control=1), Mean
  remaining activity at 0.01 µM: 93.7%
[3]; MRK-560 10 nM, replicates, read-out: Normalized production (control=1)
  remaining activity at 0.01 µM: 96.7%
[3]; MRK-560 40 nM, mean of 3 replicates, read-out: Normalized production (control=1), Mean
  remaining activity at 0.04 µM: 94.4%
[3]; MRK-560 40 nM, replicates, read-out: Normalized production (control=1)
  remaining activity at 0.04 µM: 92.8%
[3]; MRK-560 200 nM, mean of 3 replicates, read-out: Normalized production (control=1), Mean
  remaining activity at 0.2 µM: 44.1%
[3]; MRK-560 200 nM, replicates, read-out: Normalized production (control=1)
  remaining activity at 0.2 µM: 43.5%
[3]; MRK-560 1 μM, mean of 3 replicates, read-out: Normalized production (control=1), Mean
  remaining activity at 1 µM: 9.52%
[3]; MRK-560 1 μM, replicates, read-out: Normalized production (control=1)
  remaining activity at 1 µM: 8.72%
[3]; MRK-560 10 μM, mean of 3 replicates, read-out: Normalized production (control=1), Mean
  remaining activity at 10 µM: 6.39%
[3]; MRK-560 10 μM, replicates, read-out: Normalized production (control=1)
  remaining activity at 10 µM: 6.67%
[3]; PS2-complex WT, mean ± SD, n=3
  IC50: 173 ± 24 nM
[3]; MRK-560 2 nM, replicates
  Caculated Aβ40 production: 178.2729 and 172.6848 and 175.9467
  raw data from α-Lisa reading: 27903 and 28403 and 28759
[3]; MRK-560 10 nM, replicates
  Caculated Aβ40 production: 177.3643 and 172.5675 and 151.3305
  raw data from α-Lisa reading: 27885 and 24607 and 28620
[3]; MRK-560 40 nM, replicates
  Caculated Aβ40 production: 171.4208 and 165.5620 and 168.4662
  raw data from α-Lisa reading: 26808 and 27255 and 27709
[3]; MRK-560 200 nM, replicates
  Caculated Aβ40 production: 82.1115 and 77.5422 and 76.1780
  raw data from α-Lisa reading: 12906 and 12685 and 13645
[3]; MRK-560 1 μM, replicates
  Caculated Aβ40 production: 17.8069 and 15.5539 and 17.5803
  raw data from α-Lisa reading: 2685 and 3025 and 3063
[3]; MRK-560 10 μM, replicates
  Caculated Aβ40 production: 12.9409 and 11.9064 and 9.3762
  raw data from α-Lisa reading: 2072 and 1646 and 2246
[4]
  Generation of AICD: completely inhibited
[5]
  Generation of AICD: can still be detected; also recorded: could not be completely inhibited
[6]
  higher suppression of the PS1-complex over PS2: 37 folds
[7]
  Notch-related side effect: does not induce Notch-related side effect
